Test results taken from patent publication US10106580B2, “Enopeptins, uses thereof, and methods of synthesis thereto” (Brown University, priority 2011, dated 2018).
In brackets after ≈: the same amount, converted by molar mass. Numbered stars: 1 amine (or outer) side, 2 acyl side, 3 side chain; on linkers, the order of the positions; unused ones are H or OH. Bridge positions count the residues as written; N and C are the ends. Square brackets hold non-standard residues; d marks the D form. Peptide text beside a SMILES is read from it. * marks the point of attachment. Phe(3-F) = N[C@@H](Cc1cccc(F)c1)C(=O)O; X2 = CC1CCN([*:1])[C@@H](C(=O)[*:2])C1; X1 = CC1CCN([*:1])[C@H](C(=O)[*:2])C1; X3 = CCC(CC)(C(=O)[*:2])N(C)[*:1]; Heptenoyl(2E) = CCCC/C=C/C(=O)*; NMeAc6c = CNC1(C(=O)O)CCCCC1; NMeAc5c = CNC1(C(=O)O)CCCC1; NMeAc4c = CNC1(C(=O)O)CCC1

How the values were obtained:
[1] = system: Vancomycin-resistant Enterococcus faecalis (clinical isolate from rectal swab); assay: Broth dilution MIC/MBC vs vancomycin-resistant E. faecalis; type: cell-based; conditions: VRE
Source text: (§1) The naturally occurring enopeptins and the synthetic derivative ADEP 4 are reported to have strong antibacterial activity (see, e.g., Hinzen et al., Chem Med Chem 2006, 1, 689). Broth dilution assays were used to determine the MICs of the acyldepsipeptide derivatives 10a-h against both ATCC strains and clinical isolates of S. epidermis, S. aureus, and Enterococci obtained from patients of the Veterans Affairs Medical Center in Providence, R.I. Clinical isolates were included to gain a better indication of the potential of these new antibacterial agents (see, e.g., Clinical and Laboratory Standard Institute (CLSI) Methods for dilution antimicrobial susceptibility tests for bacteria that grow aerobically M07-A8; CLSI 8th ed., Wayne, Pa., 2009; Clinical Laboratory Standards Institute (CLSI) Performance standards for antimicrobial susceptibility testing M100-S19. CLSI 19th informational suppl., Wayne, Pa. 2009). In the interest of assessing the cell-killing ability of these compounds, the minimal bactericidal concentrations (MBC) of the compounds was also determined against the aformentioned strains. The MIC was defined as the lowest concentration of an antimicrobial agent visually inhibiting more than 99% of the colonies.
(§2) Minimum inhibitory concentrations (MIC) were determined in duplicate using methods outlined by The Clinical and Laboratory Standards Institute. Compounds were dissolved in DMSO and fresh cation-adjusted Mueller-Hinton broth (SMHB; Difco Laboratories, Sparks, Md., USA; 25 μg/mL calcium and 12.5 μg/mL magnesium) was used to dilute antimicrobial agents in a serial 2-fold schedule. Colony counts for the inoculum verification was determined using Tryptic Soy Agar plates (TSA, Difco, Becton Dickinson Co., Sparks, Md., USA). Following incubation, 100 μL of broth was subcultured onto TSA for MBC determination. MIC and MBC determination can be found in Table 2 and 3. Control isolates were obtained from the American Type Culture Collection (ATCC) and were as follows: Methicillin-resistant S. epidermidis (MRSE ATCC 35984); MSSA (ATCC 35556) and, VRE (ATCC 2030).

[2] = system: Vancomycin-resistant Enterococcus faecium (clinical isolate obtained from tissue); assay: Broth dilution MIC/MBC vs vancomycin-resistant E. faecium; type: cell-based; conditions: VRE
Source text: as §1, §2

[3] = system: Enterococcus faecalis (clinical isolate from rectal swab); assay: Broth dilution MIC/MBC vs E. faecalis clinical isolate; type: cell-based; conditions: EF^2: E. faecalis (clinical isolate from rectal swab)
Source text: as §1, §2

[4] = system: Enterococcus faecalis (ATCC 29212); assay: Broth dilution MIC/MBC vs E. faecalis ATCC strain; type: cell-based; conditions: ATCC29212, EF^1: E. faecalis (ATCC 29212)
Source text: as §1, §2

[5] = system: Methicillin-susceptible S. aureus (ATCC 35556); assay: Broth dilution MIC/MBC vs methicillin-susceptible S. aureus; type: cell-based, Staphylococcus aureus; conditions: for MIC / MBC: Staphylococcus aureus, ATCC 35556 / MSSA, MSSA (ATCC 35556); for MBC: 99.9% kill after 24 h
Source text: as §1, §2

[6] = system: Methicillin-resistant S. aureus (clinical isolate from blood); assay: Broth dilution MIC/MBC vs methicillin-resistant S. aureus; type: cell-based; conditions: Staphylococcus aureus, MRSA (clinical isolate from blood); for MBC: 99.9% kill after 24 h
Source text: as §1, §2

[7] = system: E. faecalis and vancomycin-resistant E. faecium; assay: Antibacterial activity vs panel of pathogenic Enterococci, stated in words; type: cell-based; conditions: against E. faecalis and vancomycin-resistant E. faecium
Source text: as §1, with “The MIC was defined as the lowest concentration of an antimicrobial agent visually inhibiting more than 99% of the colonies.” left out
(§3) Minimum inhibitory concentrations (MIC) were determined in duplicate using methods outlined by The Clinical and Laboratory Standards Institute. […] Colony counts for the inoculum verification was determined using Tryptic Soy Agar plates (TSA, Difco, Becton Dickinson Co., Sparks, Md., USA). […]

[8] = system: Staphylococcus epidermis (ATCC 25984); assay: Broth dilution MIC/MBC vs Staphylococcus epidermis; type: cell-based; conditions: ATCC25984
Source text: as §1, with “The MIC was defined as the lowest concentration of an antimicrobial agent visually inhibiting more than 99% of the colonies.” left out
as §3

S. aureus strains = assay: Antibacterial activity vs S. aureus strains, stated in words; type: cell-based, Staphylococcus aureus
Source text: as §1, with “The MIC was defined as the lowest concentration of an antimicrobial agent visually inhibiting more than 99% of the colonies.” left out
as §3

Row | MIC [5] | MIC [6] | Compound | MBC [1] | MIC [1] | MBC [2] | MIC [2] | MBC [3] | MIC [3] | MBC [4] | MIC [4] | MBC [5] | antibacterial activity compared with compound 10a ([5]; against MSSA, in words) | MBC [6] | antibacterial activity compared with compound 10a [7] | MBC [8] | MIC [8] | antibacterial activity (S. aureus strains)
1 | 39.1 µg/mL (≈ 51 µM) | > 312 µg/mL | CCCC/C=C/C(=O)N[C@@H](Cc1cccc(F)c1)C(=O)N[C@H]1COC(=O)[C@@H]2CCCN2C(=O)[C@H](C)NC(=O)C2(CCCCC2)N(C)C(=O)[C@@H]2CCCN2C1=O [Compound 10h] ({Heptenoyl(2E)}-[Phe(3-F)]SP[NMeAc6c]AP; ester 2-C) | – | – | – | – | – | – | – | – | > 312 µg/mL | – | > 312 µg/mL | – | – | – | –
2 | 312 µg/mL (≈ 422 µM) | > 312 µg/mL | CCCC/C=C/C(=O)N[C@@H](Cc1cccc(F)c1)C(=O)N[C@H]1COC(=O)[C@@H]2CCCN2C(=O)[C@H](C)NC(=O)C2(CCC2)N(C)C(=O)[C@@H]2CCCN2C1=O [Compound 10f] ({Heptenoyl(2E)}-[Phe(3-F)]SP[NMeAc4c]AP; ester 2-C) | – | – | – | – | – | – | – | – | > 312 µg/mL | – | > 312 µg/mL | – | – | – | –
3 | 39.1 µg/mL (≈ 51.9 µM) | > 312 µg/mL | CCCC/C=C/C(=O)N[C@@H](Cc1cccc(F)c1)C(=O)N[C@H]1COC(=O)[C@@H]2CCCN2C(=O)[C@H](C)NC(=O)C2(CCCC2)N(C)C(=O)[C@@H]2CCCN2C1=O [Compound 10g] ({Heptenoyl(2E)}-[Phe(3-F)]SP[NMeAc5c]AP; ester 2-C) | – | – | – | – | – | – | – | – | > 312 µg/mL | – | > 312 µg/mL | – | – | – | –

Second part, the molecule before the results:

Row | Compound | MIC [5] | MIC [6] | MBC [1] | MIC [1] | MBC [2] | MIC [2] | MBC [3] | MIC [3] | MBC [4] | MIC [4] | MBC [5] | antibacterial activity compared with compound 10a ([5]; against MSSA, in words) | MBC [6] | antibacterial activity compared with compound 10a [7] | MBC [8] | MIC [8] | antibacterial activity (S. aureus strains)
4 | CCCC/C=C/C(=O)N[C@@H](Cc1cccc(F)c1)C(=O)N[C@H]1COC(=O)[C@@H]2CCCN2C(=O)[C@H](C)NC(=O)[C@@H]2CC(C)CCN2C(=O)[C@@H]2CCCN2C1=O (some centres unmarked) [Compound 10c] ({Heptenoyl(2E)}-[Phe(3-F)]SP[X1]AP; ester 2-C) | 0.6 µg/mL (≈ 0.797 µM) | 0.6 µg/mL (≈ 0.797 µM) | 0.04 µg/mL (≈ 0.0531 µM) | 0.04 µg/mL (≈ 0.0531 µM) | 0.08 µg/mL (≈ 0.106 µM) | 0.04 µg/mL (≈ 0.0531 µM) | 0.04 µg/mL (≈ 0.0531 µM) | 0.02 µg/mL (≈ 0.0266 µM) | 0.08 µg/mL (≈ 0.106 µM) | 0.04 µg/mL (≈ 0.0531 µM) | 0.6 µg/mL (≈ 0.797 µM) | better activity than compound 10a | 2.4 µg/mL (≈ 3.19 µM) | more potent activity | – | – | –
5 | CCCC/C=C/C(=O)N[C@@H](Cc1cccc(F)c1)C(=O)N[C@H]1COC(=O)[C@@H]2CCCN2C(=O)[C@H](C)NC(=O)C(CC)(CC)N(C)C(=O)[C@@H]2CCCN2C1=O [Compound 10e] ({Heptenoyl(2E)}-[Phe(3-F)]SP[X3]AP; ester 2-C) | 78.1 µg/mL (≈ 103 µM) | > 312 µg/mL | – | – | – | – | – | – | – | – | > 312 µg/mL | – | > 312 µg/mL | – | – | – | –
6 | CCCC/C=C/C(=O)N[C@@H](Cc1cccc(F)c1)C(=O)N[C@H]1COC(=O)[C@@H]2CCCN2C(=O)[C@H](C)NC(=O)[C@@H]2CCCCN2C(=O)[C@@H]2CCCN2C1=O [Compound 10a] | 1.25 µg/mL (≈ 1.69 µM) | 1.25 µg/mL (≈ 1.69 µM) | 0.04 µg/mL (≈ 0.0541 µM) | 0.04 µg/mL (≈ 0.0541 µM) | 0.08 µg/mL (≈ 0.108 µM) | 0.08 µg/mL (≈ 0.108 µM) | 0.04 µg/mL (≈ 0.0541 µM) | 0.04 µg/mL (≈ 0.0541 µM) | 1.25 µg/mL (≈ 1.69 µM) | 0.16 µg/mL (≈ 0.217 µM) | 1.25 µg/mL (≈ 1.69 µM) | – | 1.25 µg/mL (≈ 1.69 µM) | – | 1.25 µg/mL (≈ 1.69 µM) | 1.25 µg/mL (≈ 1.69 µM) | exhibited the expected antibacterial activity
7 | CCCC/C=C/C(=O)N[C@@H](Cc1cccc(F)c1)C(=O)N[C@H]1COC(=O)[C@@H]2CCCN2C(=O)[C@H](C)NC(=O)[C@H]2CCCCN2C(=O)[C@@H]2CCCN2C1=O [Compound 10b] | > 312 µg/mL | > 312 µg/mL | – | – | – | – | – | – | – | – | > 312 µg/mL | – | > 312 µg/mL | – | – | – | –
8 | CCCC/C=C/C(=O)N[C@@H](Cc1cccc(F)c1)C(=O)N[C@H]1COC(=O)[C@@H]2CCCN2C(=O)[C@H](C)NC(=O)[C@H]2CC(C)CCN2C(=O)[C@@H]2CCCN2C1=O (some centres unmarked) [Compound 10d] ({Heptenoyl(2E)}-[Phe(3-F)]SP[X2]AP; ester 2-C) | > 156 µg/mL | > 156 µg/mL | – | – | – | – | – | – | – | – | > 156 µg/mL | – | 0.156 µg/mL (≈ 0.207 µM) | – | – | – | –
